# In US8247211B2, “Glycopeptide antibiotics” (American Cyanamid Company, priority 2001, dated 2012):
# Experiments:
# Test in all cases: In vitro antibacterial evaluation: minimum inhibitory concentration (MIC), broth dilution method
# Type in all cases: cell-based
# [1] = test system: Enterococcus sp.; conditions: for MIC Enterococcus faecalis (ATCC 29212): strain ATCC 29212; for MIC Enterococcus faecium (GC 2243): strain GC 2243; for MIC Enterococcus faecalis (GC 4552): strain GC 4552; for MIC Enterococcus faecalis (GC 4553): strain GC 4553; for MIC Enterococcus faecalis (GC 4554): strain GC 4554; for MIC Enterococcus faecium (GC 4556): strain GC 4556; for MIC Enterococcus faecium (GC 4557): strain GC 4557; for MIC Enterococcus avium (GC 4558): strain GC 4558
# Procedure: (§1) The minimum inhibitory concentration (MIC), the lowest concentration of the antibiotic which inhibits growth of the test organism, is determined by the broth dilution method using Muller-Hinton II […] (Baltimore Biological Laboratories) following the recommendations of the National Committee for Clinical Laboratory Standards [Methods for dilution antimicrobial susceptibility tests for bacteria that grow aerobically, approved standard M7-A2, National Committee for Clinical Laboratory Standards, Villanova, Pa].
# (§2) An inoculum level of 5×10^5 CFU/mL, and a range of antibiotic concentrations (64-0.06 μg/mL) is used. […] The test organisms include a spectrum of Gram-positive bacteria comprised of Staphylococcus sp., Streptococcus sp. and Enterococcus sp. These organisms include recent clinical isolates that are resistant to methicillin, penicillin and/or vancomycin.
# [2] = test system: Escherichia coli
# Procedure: as §1, §2
# [3] = test system: Staphylococcus sp.; conditions: for MIC Staphylococcus haemolyticus (GC 4546): strain GC 4546; for MIC Coagulase Negative Staphylococcus (GC 4547): strain GC 4547; for MIC Coagulase Negative Staphylococcus (GC 4548): strain GC 4548; for MIC Coagulase Negative Staphylococcus (GC 4549): strain GC 4549; for MIC Coagulase Negative Staphylococcus (GC 4551): strain GC 4551; for MIC Coagulase Negative Staphylococcus (ID-3941): strain ID-3941
# Procedure: as §1, §2
# [4] = test system: Streptococcus sp.
# Procedure: as §1, §2
# [5] = broth dilution, 18 hours at 35° C.
# [6] = strain GC 4543, 18 hours at 35° C.
# [7] = strain GC 4543, broth dilution, 18 hours at 35° C.
# [8] = broth dilution, 5×10^5 CFU/mL, 18 hours at 35° C.
compound,measurement,setting,value
"CC(c1ccccc1)C1NC(=O)CNC(=O)C(CO)NC(=O)C(C(O)C2CN(c3nc4ccccc4s3)C(=N)N2C2OC(CO)C(O)C(O)C2O)NC(=O)C(C(O)C2CNC(=Nc3nc4ccccc4s3)N2)NC(=O)C(Cc2ccc(OC3OC(CO)C(OC4OC(CO)C(O)C(O)C4O)C(O)C3O)cc2)NC1=O (stereo not drawn) [Example 94, Cyclo[glycyl-β-methylphenylalanyl-O-(4-O-hexopyranosylhexopyranosyl)tyrosyl-3-[2-(1,3-benzothiazol-2-ylimino)imidazolidin-4-yl]seryl-3-[1-(1,3-benzo-thiazol-2-yl)-2-imino-3-hexonyranosylimidazolidin-4-yl]serylseryl]]",MIC Enterococcus faecalis (GC 2242),"[1]; Enterococcus faecalis (GC 2242), broth dilution, 18 hours at 35° C.",>64 µg/mL
same,MIC Enterococcus faecalis (GC 2691),"[1]; Enterococcus faecalis (GC 2691), broth dilution, 18 hours at 35° C.",>64 µg/mL
same,MIC Enterococcus faecalis (GC 3059),"[1]; Enterococcus faecalis (GC 3059), broth dilution, 18 hours at 35° C.",>64 µg/mL
same,MIC Enterococcus faecalis (ATCC 29212),[1],>64 µg/mL
same,MIC Enterococcus faecalis (GC 2242),[1]; strain GC 2242,>64 µg/mL
same,MIC Enterococcus faecium (GC 2243),[1],>64 µg/mL
same,MIC Enterococcus faecalis (GC 2691),[1]; strain GC 2691,>64 µg/mL
same,MIC Enterococcus faecalis (GC 3059),[1]; strain GC 3059,>64 µg/mL
same,MIC Enterococcus faecalis (GC 4552),[1],>64 µg/mL
same,MIC Enterococcus faecalis (GC 4553),[1],>64 µg/mL
same,MIC Enterococcus faecalis (GC 4554),[1],>64 µg/mL
same,MIC Enterococcus faecium (GC 4556),[1],>64 µg/mL
same,MIC Enterococcus faecium (GC 4557),[1],>64 µg/mL
same,MIC Enterococcus avium (GC 4558),[1],>64 µg/mL
same,MIC Enterococcus faecalis (GC 6189),[1]; strain GC 6189,>64 µg/mL
same,MIC Escherichia coli (ATCC 25922),[2]; strain ATCC 25922,>64 µg/mL
same,MIC Escherichia coli (GC 4559),[2]; strain GC 4559,>64 µg/mL
same,MIC Escherichia coli (GC 4560),[2]; strain GC 4560,64 µg/mL
same,MIC Staphylococcus aureus (ATCC 29213),[3]; [5],>64 µg/mL
same,MIC Staphylococcus aureus (GC 1131),[3]; [5],>64 µg/mL
same,MIC Staphylococcus aureus (GC 3051),[3]; [5],>64 µg/mL
same,MIC Staphylococcus aureus (GC 3053),[3]; [5],>64 µg/mL
same,MIC Staphylococcus aureus (GC 4541),[3]; [5],>64 µg/mL
same,MIC Staphylococcus aureus (GC 4542),[3]; [5],>64 µg/mL
same,MIC Staphylococcus aureus (GC 4544),[3]; [5],>64 µg/mL
same,MIC Staphylococcus aureus (GC 4545),[3]; [5],>64 µg/mL
same,MIC Staphylococcus aureus-SMITH (GC 4543),[3]; [6],>64 µg/mL
same,MIC Staphylococcus haemolyticus (GC 4546),[3],>64 µg/mL
same,MIC Coagulase Negative Staphylococcus (GC 4547),[3],>64 µg/mL
same,MIC Coagulase Negative Staphylococcus (GC 4548),[3],>64 µg/mL
same,MIC Coagulase Negative Staphylococcus (GC 4549),[3],>64 µg/mL
same,MIC Coagulase Negative Staphylococcus (GC 4551),[3],>64 µg/mL
same,MIC Staphylococcus aureus-SMITH (GC 4543),"[3]; strain SMITH GC 4543, broth dilution, 18 hours at 35° C.",>64 µg/mL
same,MIC Streptococcus agalactiae (GC 4564),"[4]; Streptococcus agalactiae (GC 4564), broth dilution, 18 hours at 35° C.",>64 µg/mL
same,MIC Streptococcus pneumoniae (ATCC 6301),"[4]; Streptococcus pneumoniae (ATCC 6301), broth dilution, 18 hours at 35° C.",>64 µg/mL
same,MIC Streptococcus pneumoniae (GC 1894),"[4]; Streptococcus pneumoniae (GC 1894), broth dilution, 18 hours at 35° C.",>64 µg/mL
same,MIC Streptococcus pneumoniae (GC 4565),"[4]; Streptococcus pneumoniae (GC 4565), broth dilution, 18 hours at 35° C.",>64 µg/mL
same,MIC Streptococcus pyogenes (GC 4563),"[4]; Streptococcus pyogenes (GC 4563), broth dilution, 18 hours at 35° C.",>64 µg/mL
same,MIC Streptococcus pneumoniae (ATCC 6301),[4]; strain ATCC 6301,>64 µg/mL
same,MIC Streptococcus pneumoniae (GC 1894),[4]; strain GC 1894,>64 µg/mL
same,MIC Streptococcus pyogenes (GC 4563),[4]; strain GC 4563,>64 µg/mL
same,MIC Streptococcus agalactiae (GC 4564),[4]; strain GC 4564,>64 µg/mL
same,MIC Streptococcus pneumoniae (GC 4565),[4]; strain GC 4565,>64 µg/mL
"CCCC(CCC)C(=O)OCC1OC(Oc2ccc(CC3NC(=O)C(C(C)c4ccccc4)NC(=O)CNC(=O)C(CO)NC(=O)C(C(O)C4CNC(=N)N4C4OC(CO)C(O)C(O)C4O)NC(=O)C(C(O)C4CNC(=N)N4)NC3=O)cc2)C(O)C(O)C1OC1OC(CO)C(O)C(O)C1O (stereo not drawn) [Example 99b, Cyclo[glycyl-β-methylphenylalanyl-O-(4-O-hexopyranosyl-6-O-(2-propylpentanoyl)hexopyranosyl]tyrosyl-3-(2-iminoimidazolidin-4-yl)seryl-3-(3-hexopyranosyl-2-iminoimidazolidin-4-yl)serylseryl]]",MIC Enterococcus faecalis (ATCC 29212),[1],16 µg/mL
same,MIC Enterococcus faecalis (GC 2242),[1]; strain GC 2242,16 µg/mL
same,MIC Enterococcus faecium (GC 2243),[1],16 µg/mL
same,MIC Enterococcus faecalis (GC 4552),[1],32 µg/mL
same,MIC Enterococcus faecalis (GC 4553),[1],16 µg/mL
same,MIC Enterococcus faecalis (GC 4554),[1],32 µg/mL
same,MIC Enterococcus faecium (GC 4556),[1],16 µg/mL
same,MIC Enterococcus faecium (GC 4557),[1],4 µg/mL
same,MIC Enterococcus avium (GC 4558),[1],16 µg/mL
same,MIC Escherichia coli (ATCC 25922),[2]; strain ATCC 25922,>64 µg/mL
same,MIC Staphylococcus aureus (ATCC 29213),[3]; [5],4 µg/mL
same,MIC Staphylococcus aureus (GC 1131),[3]; [5],4 µg/mL
same,MIC Staphylococcus aureus (GC 4541),[3]; [5],4 µg/mL
same,MIC Staphylococcus aureus (GC 4542),[3]; [5],4 µg/mL
same,MIC Staphylococcus aureus (GC 4544),[3]; [5],4 µg/mL
same,MIC Staphylococcus aureus (GC 4545),[3]; [5],4 µg/mL
same,MIC Staphylococcus aureus-SMITH (GC 4543),[3]; [6],4 µg/mL
same,MIC Staphylococcus aureus-SMITH (GC 4543),[3]; [7],4 µg/mL
same,MIC Staphylococcus haemolyticus (GC 4546),[3],4 µg/mL
same,MIC Staphylococcus haemolyticus (GC 4546),[3]; [5],4 µg/mL
same,MIC Coagulase Negative Staphylococcus (GC 4547),[3],4 µg/mL
same,MIC Coagulase Negative Staphylococcus (GC 4547),[3]; [5],4 µg/mL
same,MIC Coagulase Negative Staphylococcus (GC 4548),[3],4 µg/mL
same,MIC Coagulase Negative Staphylococcus (GC 4548),[3]; [5],4 µg/mL
same,MIC Coagulase Negative Staphylococcus (GC 4549),[3],2 µg/mL
same,MIC Coagulase Negative Staphylococcus (GC 4549),[3]; [5],2 µg/mL
same,MIC Coagulase Negative Staphylococcus (GC 4551),[3],8 µg/mL
same,MIC Coagulase Negative Staphylococcus (GC 4551),[3]; [5],8 µg/mL
same,MIC Coagulase Negative Staphylococcus (ID-3941),[3],2 µg/mL
same,MIC Coagulase Negative Staphylococcus (ID-3941),[3]; [5],2 µg/mL
same,MIC Streptococcus agalactiae (GC 4564),[4]; strain GC 4564,2 µg/mL
same,MIC Streptococcus pneumoniae (GC 4565),[4]; strain GC 4565,<0.5 µg/mL
same,MIC Streptococcus pyogenes (ID-3187),[4]; strain ID-3187,1 µg/mL
"CC(c1ccccc1)C1NC(=O)CNC(=O)C(CO)NC(=O)C(C(O)C2CNC(=N)N2C2OC(CO)C(O)C(O)C2O)NC(=O)C(C(O)C2CNC(=N)N2)NC(=O)C(Cc2ccc(OC3OC(COC(=O)OCc4ccccc4)C(OC4OC(CO)C(O)C(O)C4O)C(O)C3O)cc2)NC1=O (stereo not drawn) [Example 101, Cyclo[glycyl-β-methylphenylalanyl-O-[4-O-hexopyranosyl-6-O-[(phenylmethoxy)carbonyl]-hexopyranosyl]tyrosyl-3-(2-iminoimidazolidin-4-yl)seryl-3-(3-hexopyranosyl-2-iminoimidazolidin-4-1/1)serylseryl]]",MIC Enterococccus avium (GC 4558),[1]; [8],32 µg/mL
same,MIC Enterococccus faecalis (ATCC 29212),[1]; [8],32 µg/mL
same,MIC Enterococccus faecalis (GC 4552),[1]; [8],64 µg/mL
same,MIC Enterococccus faecalis (GC 4553),[1]; [8],32 µg/mL
same,MIC Enterococccus faecalis (GC 4554),[1]; [8],64 µg/mL
same,MIC Enterococccus faecium (GC 2243),[1]; [8],32 µg/mL
same,MIC Enterococccus faecium (GC 4556),[1]; [8],32 µg/mL
same,MIC Enterococccus faecium (GC 4557),[1]; [8],2 µg/mL
same,MIC Enterococcus faecalis (GC 2242),[1]; [8],16 µg/mL
same,MIC Escherichia coli (ATCC 25922),"[2]; 5×10^5 CFU/mL, 18 hours at 35° C.",>64 µg/mL
same,MIC Staphylococcus aureus (ATCC 29213),[3]; strain ATCC 29213,4 µg/mL
same,MIC Staphylococcus aureus (GC 1131),[3]; strain GC 1131,4 µg/mL
same,MIC Staphylococcus aureus (GC 4541),[3]; strain GC 4541,4 µg/mL
same,MIC Staphylococcus aureus (GC 4542),[3]; strain GC 4542,8 µg/mL
same,MIC Staphylococcus aureus-SMITH (GC 4543),[3]; [6],4 µg/mL
same,MIC Staphylococcus aureus-SMITH (GC 4543),[3]; [7],4 µg/mL
same,MIC Staphylococcus aureus (GC 4544),[3]; strain GC 4544,8 µg/mL
same,MIC Staphylococcus aureus (GC 4545),[3]; strain GC 4545,4 µg/mL
same,MIC Staphylococcus haemolyticus (GC 4546),[3],4 µg/mL
same,MIC Staphylococcus haemolyticus (GC 4546),[3]; [5],4 µg/mL
same,MIC Coagulase Negative Staphylococcus (GC 4547),[3],2 µg/mL
same,MIC Coagulase Negative Staphylococcus (GC 4547),[3]; [5],2 µg/mL
same,MIC Coagulase Negative Staphylococcus (GC 4548),[3],2 µg/mL
same,MIC Coagulase Negative Staphylococcus (GC 4548),[3]; [5],2 µg/mL
same,MIC Coagulase Negative Staphylococcus (GC 4549),[3],1 µg/mL
same,MIC Coagulase Negative Staphylococcus (GC 4549),[3]; [5],1 µg/mL
same,MIC Coagulase Negative Staphylococcus (GC 4551),[3],8 µg/mL
same,MIC Coagulase Negative Staphylococcus (GC 4551),[3]; [5],8 µg/mL
same,MIC Coagulase Negative Staphylococcus (ID-3941),[3],1 µg/mL
same,MIC Coagulase Negative Staphylococcus (ID-3941),[3]; [5],1 µg/mL
same,MIC Streptococcus agalactiae (GC 4564),[4]; [8],2 µg/mL
same,MIC Streptococcus pneumoniae (GC 4565),[4]; [8],<0.5 µg/mL
same,MIC Streptococcus pyogenes (ID-3187),[4]; [8],2 µg/mL
